According to patent publication US6344214B1, “Method for retarding and ameliorating fever blisters and canker sores” (priority 1999, dated 2002):
Read-outs that look alike come from different tables or passages of the source.

Assays:
herpes Simplex virus = conditions: cited from earlier work
[1] = test system: neoplasms in the large intestines; conditions: rats fed astaxanthin, azoxymethane induction; cited from earlier work
[2] = 2 mg astaxanthin capsule, six months; placebo 21.78; P=0.047; cited from earlier work
[3] = test system: photoreceptor cells of the retina; conditions: 37.5 mg/kg intraperitoneal at 12 hour intervals; uninjured control 45, injured without astaxanthin 32; cited from earlier work
shrimp = conditions: 50 mg/kg diet, 3 months; cited from earlier work
[4] = 0.1% dietary astaxanthin for 30 days, cited from earlier work
rats = conditions: 400 ppm for 41 days; cited from earlier work
rat kidney fibroblasts = conditions: UVA light for four hours; cited from earlier work
[5] = test system: chicken embryo fibroblasts (CEF); conditions: SOD, catalase, glutathione peroxidase as indices; cited from earlier work
[6] = test system: free putrescine in the epidermis; conditions: 10 ppm astaxanthin diet, 4 months; control increased 4.1-fold; cited from earlier work
Atlantic salmon fry = conditions: cited from earlier work
[7] = test system: neoplasms in the oral cavity; conditions: cited from earlier work
neoplastic liver lesions = conditions: dietary astaxanthin; cited from earlier work
rhodopsin = conditions: oral dosing, cited from earlier work
cold sores = test: Example 1: oral astaxanthin soft gel capsules, cold sore outbreaks in one individual; type: in vivo, human
Experimental: (§1) Haematococcus algae meal containing 1.5% astaxanthin was thoroughly mixed with safflower oil such that the resulting suspension contained 2.0 mg of pure astaxanthin per gram of safflower oil suspension. 500 mg soft gel capsules were produced from the safflower oil suspension such that each soft gel capsule contained 1.0 mg of pure astaxanthin.
One individual was a person who has suffered from cold sore outbreaks every 4-6 weeks on average which lasted 10-14 days . This individual consumed 3.0 mg of astaxanthin (three soft gel capsules) per day for two weeks prior to an outbreak, and the symptoms lasted only 2 days instead of 2 weeks.

[8] = test system: preneoplastic lesions and neoplasms in the bladder; conditions: 50-ppm astaxanthin in drinking water; cited from earlier work
canker sores = test: Example 2: oral astaxanthin soft gel capsules, canker sores in one individual; type: in vivo, human
Experimental: as §1
A second individual was a person who had often suffered canker sores on the inside of their mouth. They had difficulty and pain eating sour and tart foods due to the condition. This individual consumed 2.0 mg of astaxanthin (two soft gel capsules) per day for three weeks and the cankers sores were alleviated. They were then able to eat sour and tart foods without suffering pain from the canker sores. When the individual stopped taking the supplement the canker sores returned within 10 days.

[9] = in vivo; cited from earlier work
CYP1A1 = conditions: dietary level 300 ppm; cited from earlier work

Nc1nc2c(ncn2COCCO)c(=O)[nH]1 [acyclovir, Acyclovir]
patients with no fever blister outbreaks (herpes Simplex virus; four acyclovir pills daily for 4 months): 50% | effectiveness against fever blisters (herpes Simplex virus; pills taken at onset of symptoms, or cream applied to blisters or tingling lip areas, separate studies): only minimally effective

CC1=C(/C=C/C(C)=C/C=C/C(C)=C/C=C/C=C(C)/C=C/C=C(C)/C=C/C2=C(C)C(=O)[C@@H](O)CC2(C)C)C(C)(C)C[C@H](O)C1=O [astaxanthin]
incidence and multiplicity of neoplasms in the large intestines [1]: significantly smaller | strength/endurance average score (knee bends with a barbell weight) [2]: 61.74 | outer nuclear layer (ONL) thickness after photic injury [3]: 42 microns | average survival rate (shrimp): 87% | LDL cholesterol ([4]; control diet 12.5): 9.6 mg/dL | HDL cholesterol ([4]; control diet 42.4): 57 mg/dL | effects on body/organ weight, enzyme activities, pregnancy, litter size (rats): no harmful effects | level required to restore superoxide dismutase activity (rat kidney fibroblasts): 5 nM | level that prevented the UVA-induced increase in TBARS (rat kidney fibroblasts): 1 nM | level that returned catalase activity to control levels (rat kidney fibroblasts): 5 nM | protection against paraquat-induced oxidative stress [5]: observed at all levels of astaxanthin tested | increase of putrescine after UV irradiation [6]: 1.5 fold | survival rate (Atlantic salmon fry; astaxanthin concentrations below 1 ppm in diet): less than 50% | survival rate (Atlantic salmon fry; groups receiving higher concentrations): greater than 90% | incidences of preneoplastic and neoplasms in the oral cavity ([7]; 100-ppm dietary astaxanthin after the carcinogenic chemical induction): significantly smaller | oral neoplasms ([7]; astaxanthin and the chemical inducer fed at the same time): no oral neoplasms developed | number and size of neoplastic liver lesions (neoplastic liver lesions): significant influence on the reduction in number and size | retinal rhodopsin level (rhodopsin; 6-hour post injury, control 0.75): 1.15 to 1.2 nmol | retinal rhodopsin level (rhodopsin; 6 days after injury, constant through day 13, control 0.5): about 1.25 nmol | duration of cold sore symptoms (cold sores; 3.0 mg astaxanthin per day (three soft gel capsules) for two weeks before the outbreak, earlier 10-14 days): 2 days | recurrence of cold sores (cold sores; 3.0 mg per day, earlier outbreaks every 4-6 weeks): has not had a another recurrence of cold sores in three months | incidence of preneoplastic lesions and neoplasms in the bladder [8]: significantly reduced incidence | effect on canker sores (canker sores; 2.0 mg astaxanthin per day (two soft gel capsules) for three weeks): alleviated | time to return of canker sores after stopping the supplement (canker sores; after stopping 2.0 mg per day): ≤ 10 days | effect on symptoms on taking the supplement again (canker sores; same dosage, 2.0 mg per day): ameliorated after approximately three weeks | crossing of the blood-brain barrier [9]: able to readily cross the blood-brain barrier | induction of CYP1A1 (CYP1A1): strong inducer

CC1=C(/C=C/C(C)=C/C=C/C(C)=C/C=C/C=C(C)/C=C/C=C(C)/C=C/C2=C(C)CCCC2(C)C)C(C)(C)CCC1 [beta-carotene]
average survival rate (shrimp): 50% | level required to restore superoxide dismutase activity (rat kidney fibroblasts): 500 nM | level that prevented the UVA-induced increase in TBARS (rat kidney fibroblasts): 100 nM | level that returned catalase activity to control levels (rat kidney fibroblasts): 1000 nM

CC1=C[C@H](O)CC(C)(C)[C@H]1/C=C/C(C)=C/C=C/C(C)=C/C=C/C=C(C)/C=C/C=C(C)/C=C/C1=C(C)C[C@@H](O)CC1(C)C [lutein]
level required to restore superoxide dismutase activity (rat kidney fibroblasts): 1000 nM | level that prevented the UVA-induced increase in TBARS (rat kidney fibroblasts): 1000 nM | level that returned catalase activity to control levels (rat kidney fibroblasts): 100 nM
